Assay results taken from US8785428B2, “Vermin poison” (priority 2006, dated 2014).

Tests used:
rats [1] = experiment: toxic effects in rats when administered via the oral route; type: in vivo
Text: As mentioned above, rats are particularly troublesome vermin. […] For example, Tretazicar is particularly toxic towards rats compared to other rodents. […] This feature is believed to help prevent bait-shyness.

rat = conditions: administered intraperitoneally; cited from earlier work
mouse = conditions: cited from earlier work
[2] = dogs, packed into a gelatin capsule; cited from earlier work
Walker tumour = conditions: specific rat tumour ('Walker tumour'); cited from earlier work
variety of other tumours = conditions: cited from earlier work
[3] = human clinical oncology studies; cited from earlier work
rats [4] = conditions: cited from earlier work
human cells = conditions: cited from earlier work

SMILES: NC(=O)c1cc(N2CC2)c([N+](=O)[O-])cc1[N+](=O)[O-] [Tretazicar, 5-(aziridin-1-yl)-2,4-dinitrobenzarnide]
- onset of toxic effects (rats [1]): delayed
- LD50 (rat): 28 mg/kg
- LD50 (mouse): 220 mg/kg
- oral bioavailability [2]: about 40%
- effect on Walker tumour (Walker tumour): capable of eradicating
- effect on other tumours (variety of other tumours): little or no effect
- therapeutic benefit [3]: no therapeutic benefit
- toxicity (rats [4]): toxic to rats
- sensitivity of cells to the effects of the compound (human cells): insensitive
